The values below are quoted from earlier work in patent US20230065900A1, “COMPOSITIONS AND METHODS FOR MODULATING INFLAMMATION AND WOUND HEALING” (Alastin Skincare, Inc., priority 2020, published 2023).

The test system of the series is hyaluronic acid level. Particulars: ex vivo human skin model.

Turning to `CCCCCCCC(=O)CCc1ccc(O)c(OC)c1` [hydroxymethoxyphenyl decanone], the “stimulation of dermal hyaluronic acid level versus placebo” value was 259% and the “stimulation of epidermal hyaluronic acid level versus placebo” value is reported as 198%.
